According to ChEMBL document CHEMBL1133775, “Potent and selective indolomorphinan antagonists of the kappa-opioid receptor” (J Med Chem, 2000):

Assays:
[1] = target: Kappa-type opioid receptor (Cavia porcellus) (UniProt P41144); test: Ratio of the IC50 of Kappa receptor agonist, ethylketazocine in the presence of compound in GPI divided by the control IC50.; format: functional
[2] = target: Delta-type opioid receptor (Mus musculus) (UniProt P32300); test: Ratio of the IC50 of delta receptor agonist, [D-Ala-2, D-Leu5]-enkephalin in the presence of compound in MVD divided by the control IC50.; format: functional
[3] = target: T1, Opioid receptors; delta & kappa (Homo sapiens) (UniProt P41145+P41143); test: Selectivity ratio, ratio of Ke value of delta to kappa opioid receptor; format: protein assay
[4] = Selectivity ratio, ratio of Ke value of mu to kappa opioid receptor
[5] = target: T1, Opioid receptors; delta & kappa (Homo sapiens); test: Selectivity ratio, ratio of binding affinity of delta to kappa opioid receptor; format: protein assay
[6] = target: T2, Opioid receptors; mu & kappa (Homo sapiens) (UniProt P41145+P35372); test: Selectivity ratio, ratio of binding affinity of mu to kappa opioid receptor; format: protein assay
[7] = target: Mu-type opioid receptor (Cavia porcellus) (UniProt P97266); test: Ratio of the IC50 of mu receptor agonist, Morphine in the presence of compound in GPI divided by the control IC50.; format: functional
[8] = target: Kappa-type opioid receptor (Cavia porcellus) (UniProt P41144); test: Opioid receptor kappa 1 Antagonism (100 nM) is expressed as (Ke = [antagonist] / (IC50 ratio -1); format: functional
[9] = target: Kappa-type opioid receptor (Rattus norvegicus, UniProt P34975); test: Binding affinity on HEK293 cells transiently transfected with plasmids encoding the rat Opioid receptor kappa 1; format: cell-based
[10] = target: Mu-type opioid receptor (Cavia porcellus) (UniProt P97266); test: Opioid receptor mu 1 Antagonism (100 nM) is expressed as (Ke = [antagonist] / (IC50 ratio -1); format: functional
Mu-type opioid receptor = Mu-type opioid receptor (Rattus norvegicus, UniProt P33535); test: Binding affinity on HEK293 cells transiently transfected with plasmids encoding the rat Opioid receptor mu 1; format: cell-based
[11] = target: Delta-type opioid receptor (Rattus norvegicus, UniProt P33533); test: Binding affinity on HEK293 cells transiently transfected with plasmids encoding the rat Opioid receptor delta 1; format: cell-based
[12] = Selectivity ratio, ratio of Ke value of Kappa to Delta opioid receptor
[13] = target: T1, Opioid receptors; delta & kappa (Homo sapiens); test: Selectivity ratio, ratio of Ke value of Kappa to Delta opioid receptor (extrapolated value); format: protein assay
[14] = target: Delta-type opioid receptor (Mus musculus) (UniProt P32300); test: Opioid receptor delta 1 Antagonism (100 nM) is expressed as (Ke = [antagonist] / (IC50 ratio -1); format: functional
[15] = target: T2, Opioid receptors; mu & kappa (Homo sapiens); test: Selectivity ratio, ratio of Ke value of Kappa to mu opioid receptor; format: protein assay
[16] = target: T1, Opioid receptors; delta & kappa (Homo sapiens); test: Selectivity ratio, ratio of Ke value of kappa to delta opioid receptor (extrapolated value); format: protein assay

T1 sequence (P41143 whole entry, looked up): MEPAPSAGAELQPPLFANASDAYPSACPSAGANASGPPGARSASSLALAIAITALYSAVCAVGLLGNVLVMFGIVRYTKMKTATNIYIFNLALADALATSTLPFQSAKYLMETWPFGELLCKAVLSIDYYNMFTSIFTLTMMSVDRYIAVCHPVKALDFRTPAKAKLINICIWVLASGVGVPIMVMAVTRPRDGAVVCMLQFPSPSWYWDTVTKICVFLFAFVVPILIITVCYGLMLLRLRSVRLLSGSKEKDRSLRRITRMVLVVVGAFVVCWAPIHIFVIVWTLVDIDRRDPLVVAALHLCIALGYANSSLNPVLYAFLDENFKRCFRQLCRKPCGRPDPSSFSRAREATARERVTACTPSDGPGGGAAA
T1 sequence (P41145 whole entry, looked up): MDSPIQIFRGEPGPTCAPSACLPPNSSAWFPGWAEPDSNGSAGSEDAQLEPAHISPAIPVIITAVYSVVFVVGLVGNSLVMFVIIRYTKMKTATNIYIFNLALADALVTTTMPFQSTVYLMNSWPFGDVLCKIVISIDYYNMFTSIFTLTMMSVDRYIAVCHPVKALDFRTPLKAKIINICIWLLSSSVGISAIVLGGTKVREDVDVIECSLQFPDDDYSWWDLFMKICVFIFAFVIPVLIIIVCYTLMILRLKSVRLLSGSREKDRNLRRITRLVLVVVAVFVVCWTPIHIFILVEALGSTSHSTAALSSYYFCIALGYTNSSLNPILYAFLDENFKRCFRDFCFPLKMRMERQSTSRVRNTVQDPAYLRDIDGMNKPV
Sequence of Mu-type opioid receptor (Cavia porcellus) (P97266 whole entry): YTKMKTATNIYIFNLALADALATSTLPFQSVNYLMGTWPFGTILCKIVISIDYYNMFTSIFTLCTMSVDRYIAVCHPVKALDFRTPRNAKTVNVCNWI
Sequence of Delta-type opioid receptor (P33533 whole entry): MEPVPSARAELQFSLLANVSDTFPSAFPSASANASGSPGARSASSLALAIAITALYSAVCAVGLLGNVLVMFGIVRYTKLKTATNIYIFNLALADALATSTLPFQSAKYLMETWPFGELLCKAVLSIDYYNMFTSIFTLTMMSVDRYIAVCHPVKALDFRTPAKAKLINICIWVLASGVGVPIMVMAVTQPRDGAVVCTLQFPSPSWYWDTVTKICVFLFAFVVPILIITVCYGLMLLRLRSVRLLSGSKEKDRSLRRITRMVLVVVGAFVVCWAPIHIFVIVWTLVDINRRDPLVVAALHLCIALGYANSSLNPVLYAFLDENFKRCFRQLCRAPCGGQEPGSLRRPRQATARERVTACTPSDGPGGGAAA
Sequence of Kappa-type opioid receptor (Cavia porcellus) (P41144 whole entry): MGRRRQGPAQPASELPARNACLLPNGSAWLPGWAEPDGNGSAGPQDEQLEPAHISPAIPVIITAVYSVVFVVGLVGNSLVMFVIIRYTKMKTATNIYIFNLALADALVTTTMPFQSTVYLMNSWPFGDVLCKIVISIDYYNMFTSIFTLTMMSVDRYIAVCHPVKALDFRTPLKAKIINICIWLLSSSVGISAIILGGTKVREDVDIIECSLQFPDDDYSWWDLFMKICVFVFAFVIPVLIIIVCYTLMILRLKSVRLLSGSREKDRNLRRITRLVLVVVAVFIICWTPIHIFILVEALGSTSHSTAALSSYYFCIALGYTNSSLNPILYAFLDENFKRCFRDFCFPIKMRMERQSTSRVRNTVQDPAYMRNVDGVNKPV
T2 sequence (P35372 whole entry, looked up): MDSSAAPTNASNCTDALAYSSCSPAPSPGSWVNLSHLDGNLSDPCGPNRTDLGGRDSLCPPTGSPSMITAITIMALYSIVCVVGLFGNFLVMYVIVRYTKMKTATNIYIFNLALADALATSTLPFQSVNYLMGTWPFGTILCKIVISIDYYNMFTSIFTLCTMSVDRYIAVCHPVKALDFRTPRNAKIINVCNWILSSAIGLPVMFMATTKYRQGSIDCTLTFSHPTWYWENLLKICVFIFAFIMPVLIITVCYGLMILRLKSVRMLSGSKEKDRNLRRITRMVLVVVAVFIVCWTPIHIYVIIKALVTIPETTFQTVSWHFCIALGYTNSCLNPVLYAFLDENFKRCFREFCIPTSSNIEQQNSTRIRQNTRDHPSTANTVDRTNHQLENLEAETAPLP
T2 sequence (P41145 whole entry, looked up): as the sequence (P41145 whole entry, looked up) above
Sequence of Delta-type opioid receptor (Mus musculus) (P32300 whole entry): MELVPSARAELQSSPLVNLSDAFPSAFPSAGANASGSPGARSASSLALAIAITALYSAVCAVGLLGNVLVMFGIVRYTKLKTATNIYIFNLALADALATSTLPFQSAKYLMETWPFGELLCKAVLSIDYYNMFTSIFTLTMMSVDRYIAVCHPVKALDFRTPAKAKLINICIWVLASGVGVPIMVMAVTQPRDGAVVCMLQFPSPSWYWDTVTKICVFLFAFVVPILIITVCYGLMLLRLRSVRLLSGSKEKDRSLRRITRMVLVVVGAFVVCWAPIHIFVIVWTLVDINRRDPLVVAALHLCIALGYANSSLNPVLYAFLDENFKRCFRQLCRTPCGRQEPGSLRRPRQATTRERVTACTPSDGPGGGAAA
Sequence of Kappa-type opioid receptor (P34975 whole entry): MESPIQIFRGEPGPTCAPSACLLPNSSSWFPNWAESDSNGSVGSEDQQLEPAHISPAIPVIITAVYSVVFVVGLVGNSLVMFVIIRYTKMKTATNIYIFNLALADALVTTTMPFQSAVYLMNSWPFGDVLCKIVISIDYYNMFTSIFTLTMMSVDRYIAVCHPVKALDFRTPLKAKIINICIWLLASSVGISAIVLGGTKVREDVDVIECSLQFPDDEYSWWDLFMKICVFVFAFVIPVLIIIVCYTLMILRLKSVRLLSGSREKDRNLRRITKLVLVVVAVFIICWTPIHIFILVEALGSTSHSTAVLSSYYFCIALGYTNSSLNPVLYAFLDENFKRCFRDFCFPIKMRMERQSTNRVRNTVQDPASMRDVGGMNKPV
Sequence of Mu-type opioid receptor (P33535 whole entry): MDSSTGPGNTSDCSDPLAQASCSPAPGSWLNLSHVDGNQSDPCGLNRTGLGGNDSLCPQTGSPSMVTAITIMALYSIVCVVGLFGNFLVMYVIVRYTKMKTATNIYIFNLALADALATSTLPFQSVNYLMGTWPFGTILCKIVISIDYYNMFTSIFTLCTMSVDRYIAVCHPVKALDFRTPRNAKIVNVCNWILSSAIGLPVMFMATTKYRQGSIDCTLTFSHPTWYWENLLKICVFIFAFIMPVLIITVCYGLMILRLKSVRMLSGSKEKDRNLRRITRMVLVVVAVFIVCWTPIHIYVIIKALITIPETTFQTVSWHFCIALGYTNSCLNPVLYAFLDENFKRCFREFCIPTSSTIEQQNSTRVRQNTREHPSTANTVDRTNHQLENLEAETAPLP

N#CN/C(N)=N/c1ccc2[nH]c3c(c2c1)C[C@@]1(O)C2Cc4ccc(O)c5c4[C@@]1(CCN2CC1CC1)[C@H]3O5
IC50 ratio [1]: 33
IC50 ratio [2]: 12
Ratio [3]: 2.9
Ratio [4]: 5.1
Ratio [5]: 2
Ratio [6]: 20
IC50 ratio [7]: 7.2

N=C(N)NCc1ccc2[nH]c3c(c2c1)C[C@@]1(O)[C@H]2Cc4ccc(O)c5c4[C@@]1(CCN2CC1CC1)[C@H]3O5
Ke [8]: 0.6 nM
Ki [9]: 0.745 nM
Ke [10]: 11 nM
Ki (Mu-type opioid receptor): 66 nM
Ki [11]: 30.8 nM
IC50 ratio [1]: 172
IC50 ratio [2]: 0.88
Ratio [4]: 19
Ratio [5]: 41
Ratio [6]: 89
Ratio [12]: 172
IC50 ratio [7]: 10.3

N=C(N)Cc1ccc2[nH]c3c(c2c1)C[C@@]1(O)C2Cc4ccc(O)c5c4[C@@]1(CCN2CC1CC1)[C@H]3O5
Ke [8]: 2.2 nM
Ki [9]: 0.214 nM
Ki (Mu-type opioid receptor): 40.8 nM
Ki [11]: 33 nM
IC50 ratio [1]: 46.7
IC50 ratio [2]: 1.8
Ratio [12]: 26
IC50 ratio [7]: 2.1

CSC(=N)Nc1ccc2[nH]c3c(c2c1)C[C@@]1(O)C2Cc4ccc(O)c5c4[C@@]1(CCN2CC1CC1)[C@H]3O5
Ke [8]: 0.5 nM
Ke [10]: 16 nM
IC50 ratio [1]: 43.6
IC50 ratio [2]: 1.9
Ratio [13]: 115
Ratio [4]: 33
IC50 ratio [7]: 7.4

N#CN/C(N)=N/Cc1ccc2[nH]c3c(c2c1)C[C@@]1(O)C2Cc4ccc(O)c5c4[C@@]1(CCN2CC1CC1)[C@H]3O5
Ke [8]: 2.9 nM
Ke [14]: 5.9 nM
Ke [10]: 18 nM
IC50 ratio [1]: 35.4
IC50 ratio [2]: 17.9
Ratio [3]: 2
Ratio [4]: 6.2
IC50 ratio [7]: 6.7

N=C(N)/N=C(\N)Nc1ccc2[nH]c3c(c2c1)C[C@@]1(O)C2Cc4ccc(O)c5c4[C@@]1(CCN2CC1CC1)[C@H]3O5
Ke [8]: 0.2 nM
Ke [10]: 14 nM
IC50 ratio [1]: 512
IC50 ratio [2]: 0.41
Ratio [4]: 74
Ratio [5]: 478
Ratio [6]: 95
Ratio [12]: 512
IC50 ratio [7]: 7.9

C[N+](C)(C)c1ccc2[nH]c3c(c2c1)C[C@@]1(O)C2Cc4ccc(O)c5c4[C@@]1(CCN2CC1CC1)[C@H]3O5
Ke [8]: 3.1 nM
IC50 ratio [1]: 33.3
IC50 ratio [2]: 3.6
Ratio [15]: 13
Ratio [12]: 9.1
IC50 ratio [7]: 2.7

CN(C)c1ccc2[nH]c3c(c2c1)C[C@@]1(O)C2Cc4ccc(O)c5c4[C@@]1(CCN2CC1CC1)[C@H]3O5
Ke [8]: 6.8 nM
Ke [10]: 36 nM
IC50 ratio [1]: 15.8
IC50 ratio [2]: 2.4
Ratio [4]: 5.3
Ratio [12]: 6.6
IC50 ratio [7]: 3.8

N=C(N)N=C(N)Nc1ccc2[nH]c3c(c2c1)C[C@@]1(O)C2Cc4ccc(O)c5c4[C@@]1(CCN2CC1CC1)[C@H]3O5
Ki [9]: 0.226 nM
Ki (Mu-type opioid receptor): 21.5 nM
Ki [11]: 108 nM

C[N+](C)(C)CCc1ccc2[nH]c3c(c2c1)C[C@@]1(O)C2Cc4ccc(O)c5c4[C@@]1(CCN2CC1CC1)[C@H]3O5
Ke [8]: 0.4 nM
Ke [10]: 5.7 nM
IC50 ratio [1]: 48
IC50 ratio [2]: 2.5
Ratio [16]: 96
Ratio [4]: 13
IC50 ratio [7]: 18.5

CC(=N)NCc1ccc2[nH]c3c(c2c1)C[C@@]1(O)C2Cc4ccc(O)c5c4[C@@]1(CCN2CC1CC1)[C@H]3O5
Ke [8]: 6.1 nM
Ke [10]: 8.8 nM
IC50 ratio [1]: 17.3
IC50 ratio [2]: 0.88
Ratio [4]: 1.4
Ratio [12]: 17.3
IC50 ratio [7]: 12.4

N/C(S)=N/c1ccc2[nH]c3c(c2c1)C[C@@]1(O)C2Cc4ccc(O)c5c4[C@@]1(CCN2CC1CC1)[C@H]3O5
Ke [8]: 7.2 nM
Ke [10]: 38 nM
IC50 ratio [1]: 14.9
IC50 ratio [2]: 1.3
Ratio [4]: 5.3
Ratio [12]: 12
IC50 ratio [7]: 3.6

CN(C)Cc1ccc2[nH]c3c(c2c1)C[C@@]1(O)C2Cc4ccc(O)c5c4[C@@]1(CCN2CC1CC1)[C@H]3O5
Ke [8]: 0.8 nM
Ki [9]: 0.823 nM
Ke [10]: 9.8 nM
Ki (Mu-type opioid receptor): 36 nM
Ki [11]: 15.7 nM
IC50 ratio [1]: 125
IC50 ratio [2]: 1.4
Ratio [4]: 12
Ratio [5]: 19
Ratio [6]: 44
Ratio [12]: 87
IC50 ratio [7]: 11.2

N#CN=C(N)Nc1ccc2[nH]c3c(c2c1)C[C@@]1(O)C2Cc4ccc(O)c5c4[C@@]1(CCN2CC1CC1)[C@H]3O5
Ki [9]: 4.46 nM
Ki (Mu-type opioid receptor): 89.8 nM
Ki [11]: 9.46 nM

Nc1ccc2[nH]c3c(c2c1)C[C@@]1(O)C2Cc4ccc(O)c5c4[C@@]1(CCN2CC1CC1)[C@H]3O5
Ke [10]: 57 nM
IC50 ratio [1]: 4
IC50 ratio [2]: 10.3
Ratio [15]: 1.5
Ratio [12]: 0.4
IC50 ratio [7]: 2.8

C[N+](C)(C)Cc1ccc2[nH]c3c(c2c1)C[C@@]1(O)C2Cc4ccc(O)c5c4[C@@]1(CCN2CC1CC1)[C@H]3O5
Ke [8]: 0.7 nM
Ki [9]: 0.354 nM
Ke [10]: 4 nM
Ki (Mu-type opioid receptor): 12.8 nM
Ki [11]: 78.4 nM
IC50 ratio [1]: 154
IC50 ratio [2]: 0.79
Ratio [4]: 6.2
Ratio [5]: 221
Ratio [6]: 36
Ratio [12]: 154
IC50 ratio [7]: 25.8

CN(C)CCc1ccc2[nH]c3c(c2c1)C[C@@]1(O)C2Cc4ccc(O)c5c4[C@@]1(CCN2CC1CC1)[C@H]3O5
Ke [8]: 3.2 nM
IC50 ratio [1]: 32
IC50 ratio [2]: 1.8
Ratio [15]: 13
Ratio [12]: 18
IC50 ratio [7]: 2.4

CN1CC[C@]23c4c5ccc(O)c4O[C@H]2c2[nH]c4ccc(NC(=N)N)cc4c2C[C@@]3(O)C1C5
Ke [8]: 17 nM
IC50 ratio [1]: 6.8
IC50 ratio [2]: 1.7
Ratio [15]: 6.3
Ratio [5]: > 3530
Ratio [6]: 310
Ratio [12]: 4.1
IC50 ratio [7]: 1.1

CC(=N)NCCc1ccc2[nH]c3c(c2c1)C[C@@]1(O)C2Cc4ccc(O)c5c4[C@@]1(CCN2CC1CC1)[C@H]3O5
Ke [8]: 0.3 nM
Ke [10]: 7.6 nM
IC50 ratio [1]: 72.1
IC50 ratio [2]: 6.4
Ratio [3]: 65
Ratio [4]: 27
IC50 ratio [7]: 14.1

N=C(N)Nc1ccc2[nH]c3c(c2c1)C[C@@]1(O)[C@H]2Cc4ccc(O)c5c4[C@@]1(CCN2CC1CC1)[C@H]3O5 [GUANIDINONALTRINDOLE]
Ki [9]: 0.18 nM
Ki (Mu-type opioid receptor): 22.5 nM
Ki [11]: 46.2 nM
Ratio [13]: 366
Ratio [4]: 193
Ratio [5]: 257
Ratio [6]: 125

NCCc1ccc2[nH]c3c(c2c1)C[C@@]1(O)C2Cc4ccc(O)c5c4[C@@]1(CCN2CC1CC1)[C@H]3O5
Ke [8]: 2.1 nM
IC50 ratio [1]: 48.1
IC50 ratio [2]: 2.3
Ratio [15]: 15
Ratio [12]: 21
IC50 ratio [7]: 3.2

Oc1ccc2c3c1O[C@H]1c4[nH]c5c(c4C[C@@]4(O)[C@@H](C2)N(CC2CC2)CC[C@]314)C[C@@]1(O)[C@H]2Cc3ccc(O)c4c3[C@@]1(CCN2CC1CC1)[C@H]5O4 [NORBINALTORPHIMINE]
Ki [9]: 0.244 nM
Ki [11]: 41.5 nM

NCc1ccc2[nH]c3c(c2c1)C[C@@]1(O)C2Cc4ccc(O)c5c4[C@@]1(CCN2CC1CC1)[C@H]3O5
Ke [8]: 34 nM
Ke [14]: 18 nM
Ke [10]: 61 nM
IC50 ratio [1]: 3.9
IC50 ratio [2]: 6.4
Ratio [3]: 0.5
Ratio [4]: 1.8
IC50 ratio [7]: 2.6

N=C(N)c1ccc2[nH]c3c(c2c1)C[C@@]1(O)C2Cc4ccc(O)c5c4[C@@]1(CCN2CC1CC1)[C@H]3O5
Ke [8]: 0.7 nM
Ki [9]: 0.529 nM
Ke [10]: 16 nM
Ki (Mu-type opioid receptor): 65.7 nM
Ki [11]: 112 nM
IC50 ratio [1]: 142
IC50 ratio [2]: 0.3
Ratio [4]: 22
Ratio [12]: 142
IC50 ratio [7]: 7.2

CC(=N)Nc1ccc2[nH]c3c(c2c1)C[C@@]1(O)C2Cc4ccc(O)c5c4[C@@]1(CCN2CC1CC1)[C@H]3O5
Ke [8]: 1 nM
Ke [10]: 16 nM
IC50 ratio [1]: 99.4
IC50 ratio [2]: 1.9
Ratio [4]: 15
Ratio [12]: 52
IC50 ratio [7]: 7.5

N=C(N)NCCc1ccc2[nH]c3c(c2c1)C[C@@]1(O)[C@H]2Cc4ccc(O)c5c4[C@@]1(CCN2CC1CC1)[C@H]3O5
Ke [8]: 1.7 nM
Ki [9]: 0.507 nM
Ke [14]: 3.4 nM
Ke [10]: 12 nM
Ki (Mu-type opioid receptor): 33.4 nM
Ki [11]: 10.7 nM
IC50 ratio [1]: 59.8
IC50 ratio [2]: 30.1
Ratio [3]: 2
Ratio [4]: 7.3
Ratio [5]: 21
Ratio [6]: 66
IC50 ratio [7]: 9.1

CN1CC[C@]23c4c5ccc(O)c4O[C@H]2c2[nH]c4ccc(N=C(N)N)cc4c2C[C@@]3(O)C1C5
Ki [9]: 2.83 nM
Ki (Mu-type opioid receptor): 876 nM
Ki [11]: > 10000 nM
